Molecules are shown by their SMILES.

Assay [1] has as its system human colon cancer cell strain HCT-116. The assay is described as follows: MTT assay, inhibition of tumor cell growth in vitro, 72 h. The assay is classed as cell-based. The note with it: Homo sapiens, HCT-116, MTT, read-out: Antitumor proliferative activities of tumor cell (IC50, μM) HCT-116 (converted). The method, boiled down: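 Cells in RPMI 1640 with FBS, 4000 cells/well, exposed 72 h at 37 °C, 5% CO2 to final 50, 10, 2, 0.4 and 0.08 μM; 1% DMSO blank. MTT OD gives % inhibition versus control; IC50 derived by Bliss method.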

In assay [2] the test system is Human ovarian cancer cell strain OVCAR-8. The description is as above. The note with it: Homo sapiens, OVCAR-8, MTT, read-out: Antitumor proliferative activities of tumor cell (IC50, μM) OVCAR-8. The assay is classed as cell-based. The method, boiled down: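 OVCAR8 cells in RPMI 1640 plus FBS were seeded at 4000 cells/well and exposed for 72 h at 37 °C to compound at 50, 10, 2, 0.4 and 0.08 μM final, with 1% DMSO as blank. Inhibition was calculated from OD relative to control, and IC50 was derived by the Bliss method.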

For the next assay, the target named is T1, Akt1 (Homo sapiens, UniProt P31749).
T1 construct: purchased 32-021
The assay can be described thus: AKT1/PKBα KinEASE FP Fluorescein Green Assay (fluorescence polarization kinase kit). The assay is classed as biochemical. The note with it: 1 h reaction, read-out: Inhibitory activities against Akt1 (IC50). A digest of the protocol: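 FP competition kinase assay: compounds (50 μM stock) with STK Substrate 3 and ATP, 1 h reaction at room temperature; stopped with stop/antibody mix, 4 h at room temperature, then polarization read. Inhibition derived from polarization values; IC50 calculated; triplicate wells.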

T1 sequence (P31749 whole entry): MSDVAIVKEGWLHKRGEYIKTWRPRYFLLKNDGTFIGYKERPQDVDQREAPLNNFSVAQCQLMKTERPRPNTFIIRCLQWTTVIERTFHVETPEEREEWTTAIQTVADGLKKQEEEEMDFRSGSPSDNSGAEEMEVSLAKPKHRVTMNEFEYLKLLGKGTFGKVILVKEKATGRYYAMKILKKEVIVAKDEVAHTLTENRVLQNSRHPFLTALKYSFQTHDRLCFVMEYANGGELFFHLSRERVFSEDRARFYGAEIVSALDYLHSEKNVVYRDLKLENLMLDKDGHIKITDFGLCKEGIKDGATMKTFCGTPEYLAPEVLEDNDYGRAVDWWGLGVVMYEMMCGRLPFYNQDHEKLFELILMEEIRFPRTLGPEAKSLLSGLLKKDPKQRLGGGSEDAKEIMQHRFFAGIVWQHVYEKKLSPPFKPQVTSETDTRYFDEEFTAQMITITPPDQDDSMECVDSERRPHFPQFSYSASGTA

Consider `Cn1ncc(Cl)c1-c1cc(C(=O)N[C@@H]2CNC(CC(=O)NCCO)C[C@H]2c2ccc(Cl)c(Cl)c2)oc1Cl` (stereo partly drawn) [Compound 125, 5-chloro-4-(4-chloro-1-methyl-1H-pyrazol-5-yl)-N-((3S,4S)-4-(3,4-dichlorophenyl)-6-(2-((2-hydroxyethyl)amido)-2-oxoethyl)piperidin-3-yl)furan-2-formamide], for which the IC50 in assay [1] is 1.25 µM; in assay [2], 0.12 µM; at Akt1, 0.1 nM.

`CC(=O)NCCC1C[C@@H](c2ccc(F)c(F)c2)[C@H](NC(=O)c2cc(-c3c(Cl)cnn3C)c(Cl)o2)CN1` (stereo partly drawn) [Compound 126, N-((3S,4S)-6-(2-acetaminoethyl)-4-(3,4-difluorophenyl)piperidin-3-yl)-5-chloro-4-(4-chloro-1-methyl-1H-pyrazol-5-yl)furan-2-formamide]: the IC50 in assay [1] is 5.82 µM; in assay [2] it was 0.47 µM; at Akt1 it was 0.2 nM.

`Cn1ncc(Cl)c1-c1cc(C(=O)N[C@@H]2CNC(CCNS(C)(=O)=O)C[C@H]2c2ccc(F)c(F)c2)oc1Cl` (stereo partly drawn) [Compound 127, 5-chloro-4-(4-chloro-1-methyl-1H-pyrazol-5-yl)-N-((3S,4S)-4-(3,4-difluorophenyl)-6-(2-(methylsulfonamido)ethyl)piperidin-3-yl)furan-2-formamide]: the results for the IC50 (in assay [1]; in assay [2]; on Akt1) were 0.89 µM, 0.67 µM and 0.3 nM, respectively.

`Cn1ncc(Cl)c1-c1cc(C(=O)N[C@@H]2CNC(CC(O)CO)C[C@H]2c2ccc(F)c(F)c2)oc1Cl` (stereo partly drawn) [Compound 128, 5-chloro-4-(4-chloro-1-methyl-1H-pyrazol-5-yl)-N-((3S,4S)-4-(3,4-difluorophenyl)-6-(2,3-dihydroxypropyl)piperidin-3-yl)furan-2-formamide]: the results for the IC50 (in assay [1]; in assay [2]; at Akt1) were 0.95 µM, 0.92 µM and 0.5 nM, respectively.

On to `Cn1ncc(Cl)c1-c1cc(C(=O)N[C@@H]2CNC(CCO)C[C@H]2c2ccc(F)c(F)c2)oc1Cl` (stereo partly drawn) [Compound 129, 5-chloro-4-(4-chloro-1-methyl-1H-pyrazol-5-yl)-N-((3S,4S)-4-(3,4-difluorophenyl)-6-(2-hydroxyethyl)piperidin-3-yl)furan-2-formamide], for which the values for the IC50 (in assay [1]; in assay [2]; at Akt1) were 0.78 µM, 0.51 µM and 0.4 nM, respectively.

`CCCC1C[C@@H](c2ccc(Cl)c(Cl)c2)[C@H](NC(=O)c2cc(-c3c(Cl)cnn3C)c(Cl)o2)CN1` (stereo partly drawn) [Compound 130, 5-chloro-4-(4-chloro-1-methyl-1H-pyrazol-5-yl)-N-((3S,4S)-4-(3,4-dichlorophenyl)-6-propylpiperidin-3-yl)furan-2-formamide]: the figures for the half-maximal inhibitory concentration (IC50) (in assay [1]; in assay [2]; at Akt1) were 4.1 µM, 1.06 µM and 0.5 nM, respectively.

As for `CC(=O)OCCC1C[C@@H](c2ccc(F)c(F)c2)[C@H](NC(=O)c2cc(-c3c(Cl)cnn3C)c(Cl)o2)CN1` (stereo partly drawn) [Compound 131, 2-((4S,5S)-5-(5-chloro-4-(4-chloro-1-methyl-1H-pyrazol-5-yl)furan-2-formamido)-4-(3,4-difluorophenyl)piperidin-2-yl)ethylacetate], the values for the IC50 (in assay [1]; in assay [2]; at Akt1) were 0.92 µM, 4.69 µM and 0.8 nM, respectively.

As to `Cn1ncc(Cl)c1-c1cc(C(=O)N[C@@H]2CNC(CCOC(=O)C(F)(F)F)C[C@H]2c2ccc(F)c(F)c2)oc1Cl` (stereo partly drawn) [Compound 132, 2-((4S,5S)-5-(5-chloro-4-(4-chloro-1-methyl-1H-pyrazol-5-yl)furan-2-formamido)-4-(3,4-difluorophenyl)piperidin-2-yl)ethyl 2,2,2-trifluoroacetate], the IC50 in assay [1] was 1.21 µM; in assay [2] it was 1.33 µM; on Akt1, 2 nM.

With `CNC(=O)CC1C[C@@H](c2ccc(F)c(F)c2)[C@H](NC(=O)c2cc(-c3c(Cl)cnn3C)cs2)CN1` (stereo partly drawn) [Compound 133, 4-(4-chloro-1-methyl-1H-pyrazol-5-yl)-N-((3S,4S)-4-(3,4-difluorophenyl)-6-(2-(methylamido)-2-oxyethyl)piperidin-3-yl)thiophene-2-formamide], the IC50 in assay [1] is 0.42 µM; in assay [2] it was 5.79 µM; at Akt1, 3 nM.

Take `CCC[C@H]1CNC[C@@H](NC(=O)c2cc(-c3c(Cl)cnn3C)c(Cl)s2)[C@@H]1c1cccc(F)c1` [Compound 134, 5-chloro-4-(4-chloro-1-methyl-1H-pyrazol-5-yl)-N-((3S,4S,5R)-4-(3-fluorophenyl)-5-propylpiperidin-3-yl)thiophene-2-formamide]: the IC50 in assay [1] was 0.69 µM; in assay [2], 0.53 µM; on Akt1, 0.3 nM.

As for `C[C@H]1CNC[C@@H](NC(=O)c2cc(-c3c(Cl)cnn3C)c(Cl)s2)[C@@H]1c1cccc(F)c1` [Compound 135, 5-chloro-4-(4-chloro-1-methyl-1H-pyrazol-5-yl)-N-((3S, 4S, 5R)-4-(3-fluorophenyl)-5-methylpiperidin-3-yl)thiophene-2-formamide], the half-inhibitory concentration (IC50) in assay [1] is 0.8 µM; in assay [2], 1.2 µM; on Akt1, 12 nM.

Regarding `C[C@H]1CNC[C@@H](NC(=O)c2cc(-c3c(Cl)cnn3C)c(Cl)o2)[C@@H]1c1cccc(F)c1` [Compound 136, 5-chloro-4-(4-chloro-1-methyl-1H-pyrazol-5-yl)-N-((3S, 4S, 5R)-4-(3-fluorophenyl)-5-methylpiperidin-3-yl)furan-2-formamide], the IC50 is 2.81 µM in assay [1], 3.68 µM in assay [2] and 2 nM on Akt1.

On to `CCC[C@H]1CNC[C@@H](NC(=O)c2cc(-c3c(Cl)cnn3C)c(Cl)o2)[C@@H]1c1cccc(F)c1` [Compound 137, 5-chloro-4-(4-chloro-1-methyl-1H-pyrazol-5-yl)-N-((3S, 4S, 5R)-4-(3-fluorophenyl)-5-propylpiperidin-3-yl)furan-2-formamide], for which the figures for the IC50 (in assay [1]; in assay [2]; at Akt1) were 0.43 µM, 1.88 µM and 1 nM, respectively.

`Cn1ncc(Cl)c1-c1ccc(C(=O)N[C@@H]2CNCC[C@H]2c2cccc(F)c2)s1` [Compound 138, 5-(4-chloro-1-methyl-1H-pyrazol-5-yl)-N-((3S,4S)-4-(3-fluorophenyl)piperidin-3-yl)thiophene-2-formamide]: the IC50 in assay [1] was 0.56 µM; in assay [2], 3.01 µM; at Akt1, 1 nM.

Consider `Cn1ncc(Cl)c1-c1sc(C(=O)N[C@@H]2CNCC[C@H]2c2cccc(F)c2)cc1Cl` [Compound 139, 4-chloro-5-(4-chloro-1-methyl-1H-pyrazol-5-yl)-N-((3S, 4S)-4-(3-fluorophenyl)piperidin-3-yl)thiophene-2-formamide], for which the IC50 in assay [1] was 2.51 µM; in assay [2], 1.44 µM; at Akt1, 0.7 nM.

As for `Cn1ncc(-c2ccncc2)c1-c1ccc(C(=O)N[C@@H]2CNCC[C@H]2c2cccc(F)c2)s1` [Compound 140, N-((3S, 4S)-4-(3-fluorophenyl)piperidin-3-yl)-5-(1-methyl-4-(pyridinyl-4-yl)-1H-pyrazol-5-yl)thiophene-2-formamide], the concentration for half-maximal inhibition (IC50) in assay [1] is 1.1 µM; in assay [2], 6.67 µM; on Akt1, 1 nM.

As for `Cn1ncc(CO)c1-c1ccc(C(=O)N[C@@H]2CNCC[C@H]2c2cccc(F)c2)s1` [Compound 141, N-((3S, 4S)-4-(3-fluorophenyl)piperidin-3-yl)-5-(4-(hydroxylmethyl)-1-methyl-1H-pyrazol-5-yl)thiophene-2-formamide], the half-inhibitory concentration (IC50) in assay [1] is 6.56 µM; in assay [2], 1.05 µM; on Akt1 it was 12 nM.

On to `Cn1ncc(C(=O)O)c1-c1ccc(C(=O)N[C@@H]2CNCC[C@H]2c2cccc(F)c2)s1` [Compound 142], for which the IC50 is 3.09 µM in assay [1], 1.62 µM in assay [2] and 2 nM on Akt1.

On to `CC(O)c1cnn(C)c1-c1ccc(C(=O)N[C@@H]2CNCC[C@H]2c2cccc(F)c2)s1` (stereo partly drawn) [Compound 143, N-((3S, 4S)-4-(3-fluorophenyl)piperidin-3-yl)-5-(4-(1-hydroxyethyl)-1-methyl-1H-pyrazol-5-yl)thiophene-2-formamide], for which the IC50 is 0.08 µM in assay [1], 0.04 µM in assay [2] and 0.7 nM on Akt1.

Consider `C=Cc1cnn(C)c1-c1ccc(C(=O)N[C@@H]2CNCC[C@H]2c2cccc(F)c2)s1` [Compound 144, N-((3S, 4S)-4-(3-fluorophenyl)piperidin-3-yl)-5-(1-methyl-4-vinyl-1H-pyrazol-5-yl)thiophene-2-formamide], for which the half-maximal inhibitory concentration (IC50) in assay [1] was 3.68 µM; in assay [2], 3.48 µM; at Akt1, 2 nM.

Consider `CCc1cnn(C)c1-c1ccc(C(=O)N[C@@H]2CNCC[C@H]2c2cccc(F)c2)s1` [Compound 145, 5-(4-ethyl-1-methyl-1H-pyrazol-5-yl)-N-((3S, 4S)-4-(3-fluorophenyl)piperidin-3-yl)thiophene-2-formamide], for which the IC50 in assay [1] was 1.47 µM; in assay [2], 1.06 µM; at Akt1, 4 nM.

Consider `Cn1nccc1-c1ccc(C(=O)N[C@@H]2CNCC[C@H]2c2cccc(F)c2)s1` [Compound 146, N-((3S, 4S)-4-(3-fluorophenyl)piperidin-3-yl)-5-(1-methyl-1H-pyrazol-5-yl)thiophene-2-formamide], for which the IC50 in assay [1] is 0.44 µM; in assay [2], 4.19 µM; on Akt1 it was 7 nM.
